The source of these data is patent publication US20070219275A1, “Use of Benzophenone Uv Filters for Preventing Tanning” (priority 2004, published 2007).

The test deals with skin pigmentation on the back of Asian volunteers. The experiment in a line: Tanning prevention: skin color (L*a*b*, Minolta chromameter) on the back of volunteers irradiated with simulated solar light. Format: in vivo, human. Conditions: day cream with 5% compound. The procedure:
Skin color was measured in the L*a*b* colour by means of a Minolta CM-508i®) Chromameter).
10 Volunteers of originating from S-E-Asia and with a skinlightness L* between 65.4 and 40.8 were recruited following COLIPA-Guidelines.
The influence of extensive sun exposure on skin pigmentation and the protective effects of day care cosmetics were directly measured on the back of volunteers:
40 and 20 minutes prior to irradiation volunteers treated on the back with 2 mg/cm^2 of cream formulation.
Then tey were irradiated with simulated solar light for 12 weeks, 3-times a week with a dose≦1 MED (Minimal erythema dose; MED adjusted monthly).
The skin of the volunteers was assessed prior to the test and monthly prior to cream application and irradiation.
The influence of extensive sun exposure on skin pigmentation and the protective effects of a day cream containing
was directly measured on the back of Asian volunteers.
The skin of the volunteers was assessed prior to the test and monthly prior to cream application and irradiation for skin color by a Minolta Colorimeter 508i.

[1] abbreviates: After 4 weeks, irradiation 3x/week <1 MED.
The mark [2] stands for this setting: After 8 weeks, irradiation 3x/week <1 MED.
Where [3] appears, read: After 12 weeks, irradiation 3x/week <1 MED.
Where [4] appears, read: Start, 2 mg/cm^2, 10 Asian volunteers.

Take `CCCCCCOC(=O)c1ccccc1C(=O)c1ccc(N(CC)CC)cc1O` [compound of formula (3)]: the “L* (skin color)” value runs as follows: under setting [1], 50.5; under setting [2], 48.8; under setting [3], 47.7; under setting [4], 53.3. Besides, the “a* (skin color)” value is, setting by setting: under setting [1], 23.1; under setting [2], 22.6; under setting [3], 21.5; under setting [4], 22.5. In addition, the “b* (skin color)” value is 22.6 under setting [1], 23.3 under setting [2], 24.6 under setting [3] and 22.5 under setting [4].
